The values below come from patent publication US11021475B2, “Amide-substituted heterocyclic compounds useful as modulators of IL-12, IL-23 and/or IFN alpha responses” (Bristol-Myers Squibb Company, priority 2012, dated 2021).

One may read the IC50 as the concentration needed to halve the response being measured.

Assay [1] deals with IL-23 stimulated Kit225 T cells (STAT-dependent luciferase reporter). Kind of assay: Kit225 T cell assay, IL-23-stimulated STAT-dependent luciferase reporter. In kind it is cell-based, human. On the procedure: (§1) Kit225 T cells with a stably-integrated STAT-dependent luciferase reporter were plated in RPMI (Gibco) containing 10% heat-inactivated FBS (Gibco) and 100 U/mL PenStrep (Gibco). The cells were then stimulated with either 20 ng/mL human recombinant IL-23 or 200 U/mL human recombinant IFNα (PBL InterferonSource) for 5-6 hours. Luciferase expression was measured using the STEADY-GLO® Luciferase Assay System (Promega) according to the manufacturer's instructions. Inhibition data were calculated by comparison to no inhibitor control wells for 0% inhibition and non-stimulated control wells for 100% inhibition.

Assay [2] concerns IFNα stimulated Kit225 T cells (STAT-dependent luciferase reporter). Kind of assay: Kit225 T cell assay, IFNα-stimulated STAT-dependent luciferase reporter. In kind it is cell-based, human. On the procedure:
as §1

[3] abbreviates: 20 ng/mL human recombinant IL-23, 5-6 hours, read-out: IL-23 Kit225 Reporter (IC50).
The mark [4] stands for this setting: 200 U/mL human recombinant IFNα, 5-6 hours, read-out: IFNα Kit225 Reporter (IC50).
The mark [5] stands for this setting: Homo sapiens, KIT225, read-out: IL-23 Kit225 Reporter (IC50, nM).
Setting [6] is: Homo sapiens, KIT225, read-out: IFNα Kit225 Reporter (IC50, nM).

SMILES strings stand for the structures. Read-outs that look alike come from different tables or passages of the source.

For the compound `CNC(=O)c1nnc(NC(=O)C2CC2)cc1Nc1cccc(-c2ncc(F)cn2)c1OC` [Example 116], the 50% inhibitory concentration (IC50) in assay [1] (setting [3]) came to 20 nM; in assay [2] (setting [4]) it was 30 nM.

On to `CNC(=O)c1nnc(Nc2ccc(N3CCOCC3)cn2)cc1Nc1ccccc1S(C)(=O)=O` [Example 29], for which the IC50 in assay [1] (setting [3]) is 140 nM; in assay [2] (setting [4]), 80 nM.

With `CNC(=O)c1nnc(Nc2cc(C(C)=O)ccn2)cc1Nc1ccccc1S(C)(=O)=O` [Example 33], the IC50 in assay [1] (setting [3]) stood at 660 nM; in assay [2] (setting [4]), 400 nM.

As to `CCc1cc(Nc2cc(Nc3ccccc3S(C)(=O)=O)c(C(=O)NC)nn2)ncn1` [Example 46], the IC50 in assay [1] (setting [3]) was found to be 200 nM; in assay [2] (setting [4]), 60 nM.

Regarding `CNC(=O)c1nnc(Nc2cc3ccccc3cn2)cc1Nc1ccccc1S(C)(=O)=O` [Example 13], the IC50 in assay [1] (setting [3]) was found to be 20 nM; in assay [2] (setting [4]), 50 nM.

As to `COc1c(Nc2cc(NC(=O)C3CC3)nnc2C(N)=O)cccc1-c1ncn(C)n1` [Example 201], the IC50 in assay [1] (setting [3]) was found to be 20 nM; in assay [2] (setting [4]), 4.13 nM.

Take `CNC(=O)c1nnc(Nc2cc(C)nc(C)n2)cc1Nc1cccc(-c2nnc(C)o2)c1OC` [Example 153]: the IC50 came to 150 nM in assay [1] (setting [3]) and 30 nM in assay [2] (setting [4]).

Regarding `CNC(=O)c1nnc(Nc2cc(C)c(F)cn2)cc1Nc1ccccc1S(C)(=O)=O` [Example 15], the IC50 in assay [1] (setting [3]) is 40 nM; in assay [2] (setting [4]) it was 50 nM.

`CNC(=O)c1nnc(Nc2cc(CO)ccn2)cc1Nc1ccccc1S(C)(=O)=O` [Example 34]: the figures for the IC50 in assay [1] (setting [3]) and in assay [2] (setting [4]) were 190 nM and 170 nM, respectively.

`[2H]C([2H])([2H])NC(=O)c1nnc(NC(=O)C2CC2)cc1Nc1cccc(-c2ncn(CC)n2)c1OC` [Example 174]: the IC50 is 20 nM in assay [1] (setting [5]) and 6.97 nM in assay [2] (setting [6]).

In the case of `CNC(=O)c1nnc(Nc2ccc(C(=O)OC)cn2)cc1Nc1ccccc1S(C)(=O)=O` [Example 32], the results for the IC50 in assay [1] (setting [3]) and in assay [2] (setting [4]) were 70 nM and 50 nM, respectively.

`CNC(=O)c1cccc(Nc2cc(Nc3ccccn3)nnc2C(=O)NC)c1OC` [Example 169]: the IC50 in assay [1] (setting [3]) came out at 40 nM; in assay [2] (setting [4]) it was 30 nM.

Regarding `[2H]C([2H])([2H])NC(=O)c1nnc(NC(=O)C2CC2)cc1Nc1cccc(-c2nc[nH]n2)c1OC` [Example 173], the IC50 stood at 120 nM in assay [1] (setting [5]) and 20 nM in assay [2] (setting [6]).

Regarding `CNC(=O)c1nnc(Nc2cc(C)ncn2)cc1Nc1ccccc1S(C)(=O)=O` [Example 8], the values for the IC50 in assay [1] (setting [3]) and in assay [2] (setting [4]) were 130 nM and 90 nM, respectively.

Consider `CNC(=O)c1nnc(Nc2cc(C)c(F)cn2)cc1Nc1cccc(-c2ccnn2C)c1OC` [Example 197], for which the values for the IC50 in assay [1] (setting [3]) and in assay [2] (setting [4]) were 290 nM and 260 nM, respectively.

`CNC(=O)c1nnc(Nc2cc(OC(C)C)ncn2)cc1Nc1cccc(-c2ncn(C)n2)c1OC` [Example 98]: the IC50 in assay [1] (setting [3]) was found to be 30 nM; in assay [2] (setting [4]), 9.16 nM.

Regarding `CNC(=O)c1nnc(Nc2cc(C)c(C)nn2)cc1Nc1ccccc1S(C)(=O)=O` [Example 21], the concentration for half-maximal inhibition (IC50) in assay [1] (setting [3]) amounted to 80 nM; in assay [2] (setting [4]), 60 nM.

In the case of `CNC(=O)c1nnc(Nc2cc(C)nc(C)n2)cc1Nc1cccc(-c2c[nH]nn2)c1OC` [Example 191], the 50% inhibitory concentration (IC50) in assay [1] (setting [3]) worked out at 10 nM; in assay [2] (setting [4]) it was 8.63 nM.

Turning to `CNC(=O)c1nnc(Nc2ccccn2)cc1Nc1cccc(-n2cccn2)c1OC` [Example 65], the IC50 was determined as 60 nM in assay [1] (setting [3]) and 20 nM in assay [2] (setting [4]).

As for `CNC(=O)c1nnc(Nc2ccc(F)cn2)cc1Nc1cccc(-c2cccnn2)c1OC` [Example 79], the IC50 in assay [1] (setting [3]) was found to be 80 nM; in assay [2] (setting [4]) it was 30 nM.

Take `CNC(=O)c1nnc(Nc2cc(C)nc(C)n2)cc1Nc1cccc(-c2nnn(C)n2)c1OC` [Example 144]: the results for the IC50 in assay [1] (setting [3]) and in assay [2] (setting [4]) were 10 nM and 3.15 nM, respectively.

Turning to `CNC(=O)c1nnc(NC(=O)C2CC2)cc1Nc1cccc(-c2cn(C)cn2)c1OC` [Example 159], the IC50 in assay [1] (setting [3]) was 110 nM; in assay [2] (setting [4]), 80 nM.

As to `CNC(=O)c1nnc(NC(=O)C2CC2)cc1Nc1cccc(-n2cccn2)c1OC` [Example 64], the IC50 was 250 nM in assay [1] (setting [3]) and 60 nM in assay [2] (setting [4]).
